Experimental data reported in patent US7585895B2, “Therapeutic substituted cyclopentanes” (Allergan, Inc., priority 2005, dated 2009).

Columns and labels:
Type in all cases: cell-based
hEP1 = target: T1, hEP1 (Homo sapiens, UniProt P34995); test: FLIPR calcium signal, EP1; conditions: HEK-293(EBNA); for EC50: read-out: Ca2+ Signal-EC50 (nM) EP1
T1 construct: expressed in transfected cells
T1 sequence (P34995 1-402): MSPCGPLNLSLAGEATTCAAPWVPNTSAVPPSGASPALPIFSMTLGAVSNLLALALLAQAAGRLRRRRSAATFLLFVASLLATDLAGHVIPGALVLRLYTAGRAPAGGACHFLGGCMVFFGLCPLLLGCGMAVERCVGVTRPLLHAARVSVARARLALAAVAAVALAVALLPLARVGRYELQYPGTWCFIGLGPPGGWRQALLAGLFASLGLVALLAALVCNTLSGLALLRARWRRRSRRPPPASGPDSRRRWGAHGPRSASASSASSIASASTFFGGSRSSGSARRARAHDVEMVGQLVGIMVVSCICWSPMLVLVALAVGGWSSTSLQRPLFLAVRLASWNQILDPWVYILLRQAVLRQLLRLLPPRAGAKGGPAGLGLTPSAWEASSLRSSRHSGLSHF
Protocol: (§1) HEK-293(EBNA) cells, stably expressing one type or subtype of recombinant human prostaglandin receptors (prostaglandin receptors expressed: hDP/Gqs5; hEP1; hEP2/Gqs5; hEP3A/Gqi5; hEP4/Gqs5; hFP; hIP; hTP), were cultured in 100 mm culture dishes in high-glucose DMEM medium containing 10% fetal bovine serum, 2 mM 1-glutamine, 250 μg/ml geneticin (G418) and 200 μg/ml hygromycin B as selection markers, and 100 units/ml penicillin G, 100 μg/ml streptomycin and 0.25 μg/ml amphotericin B.
(§2) Cells were seeded at a density of 5×10^4 cells per well in Biocoat® Poly-D-lysine-coated black-wall, clear-bottom 96-well plates (Becton-Dickinson) and allowed to attach overnight in an incubator at 37° C. Cells were then washed two times with HBSS-HEPES buffer (Hanks Balanced Salt Solution without bicarbonate and phenol red, 20 mM HEPES, pH 7.4) using a Denley Cellwash plate washer (Labsystems). After 45 minutes of dye-loading in the dark, using the calcium-sensitive dye Fluo-4 AM at a final concentration of 2 μM, plates were washed four times with HBSS-HEPES buffer to remove excess dye leaving 100 μl in each well. Plates were re-equilibrated to 37° C. for a few minutes.
(§3) Cells were excited with an Argon laser at 488 nm, and emission was measured through a 510-570 nm bandwidth emission filter (FLIPR™, Molecular Devices, Sunnyvale, Calif.). Drug solution was added in a 50 μl volume to each well to give the desired final concentration. The peak increase in fluorescence intensity was recorded for each well. On each plate, four wells each served as negative (HBSS-HEPES buffer) and positive controls (standard agonists: BW245C (hDP); PGE2 (HEP1; hEP2/Gqs5; hEP3A/Gqi5; hEP4/Gqs5); PGF2α (hFP); carbacyclin (hIP); U-46619 (hTP), depending on receptor). The peak fluorescence change in each drug-containing well was then expressed relative to the controls.
(§4) Compounds were tested in a high-throughput (HTS) or concentration-response (CoRe) format. In the HTS format, forty-four compounds per plate were examined in duplicates at a concentration of 10^−5 M. To generate concentration-response curves, four compounds per plate were tested in duplicates in a concentration range between 10^−5 and 10^−11 M. The duplicate values were averaged. In either, HTS or CoRe format each compound was tested on at least 3 separate plates using cells from different passages to give an n≧3.

hEP2/Gqs5 = target: T2, hEP2/Gqs5 (Homo sapiens, UniProt P43116); test: FLIPR calcium signal, EP2; conditions: HEK-293(EBNA), value outside parentheses, read-out: Ca2+ Signal-EC50 (nM) EP2
T2 construct: expressed in transfected cells
T2 sequence (P43116 whole entry): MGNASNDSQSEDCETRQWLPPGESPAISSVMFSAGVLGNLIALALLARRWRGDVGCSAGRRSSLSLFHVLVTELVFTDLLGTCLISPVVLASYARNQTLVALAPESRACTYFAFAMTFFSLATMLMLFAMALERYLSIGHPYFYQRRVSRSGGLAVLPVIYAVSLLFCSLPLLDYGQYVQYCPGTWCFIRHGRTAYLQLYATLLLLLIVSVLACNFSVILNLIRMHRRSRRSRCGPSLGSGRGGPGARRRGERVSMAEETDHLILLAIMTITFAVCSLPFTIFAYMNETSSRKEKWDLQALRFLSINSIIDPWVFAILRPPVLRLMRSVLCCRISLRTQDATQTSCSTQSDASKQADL
Protocol: as §1, §2, §3, §4

hIP = target: T3, hIP (Homo sapiens, UniProt P43119); test: FLIPR calcium signal, IP; conditions: HEK-293(EBNA)
T3 construct: expressed in transfected cells
T3 sequence (P43119 whole entry): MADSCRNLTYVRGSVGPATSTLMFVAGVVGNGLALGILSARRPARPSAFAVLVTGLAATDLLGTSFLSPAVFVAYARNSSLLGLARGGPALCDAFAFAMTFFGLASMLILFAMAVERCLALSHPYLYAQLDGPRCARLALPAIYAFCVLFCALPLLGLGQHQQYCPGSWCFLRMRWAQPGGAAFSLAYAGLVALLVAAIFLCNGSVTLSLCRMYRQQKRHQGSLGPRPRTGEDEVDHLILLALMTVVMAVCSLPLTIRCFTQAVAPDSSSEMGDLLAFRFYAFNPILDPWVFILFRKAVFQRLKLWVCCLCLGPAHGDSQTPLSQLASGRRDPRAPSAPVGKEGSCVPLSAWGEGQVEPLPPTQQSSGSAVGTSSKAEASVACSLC
Protocol: as §1, §2, §3, §4

hDP/Gqs5 = target: T4, hDP/Gqs5 (Homo sapiens, UniProt Q13258); test: FLIPR calcium signal, DP; conditions: HEK-293(EBNA)
T4 construct: expressed in transfected cells
T4 sequence (Q13258 1-359): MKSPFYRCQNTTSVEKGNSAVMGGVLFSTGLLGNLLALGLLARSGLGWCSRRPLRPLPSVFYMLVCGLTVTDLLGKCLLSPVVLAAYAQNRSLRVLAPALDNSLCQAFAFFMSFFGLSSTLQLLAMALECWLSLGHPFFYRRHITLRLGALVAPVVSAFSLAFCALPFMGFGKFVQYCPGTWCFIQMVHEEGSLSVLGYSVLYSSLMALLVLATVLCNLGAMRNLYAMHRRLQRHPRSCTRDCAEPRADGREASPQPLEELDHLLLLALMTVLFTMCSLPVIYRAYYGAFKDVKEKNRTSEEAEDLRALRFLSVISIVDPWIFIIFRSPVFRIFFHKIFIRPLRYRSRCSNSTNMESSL
Protocol: as §1, §2, §3, §4

EP2 = EP2 (Homo sapiens, UniProt P43116); test: cAMP assay, HEK-EBNA cells expressing EP2; parameters: expressed in transfected cells; host or cells: HEK-EBNA; conditions: value in parentheses in EP2 column, read-out: EP2 EC50 (nM), measurement of cAMP (data in parentheses)
Chain of EP2 (P43116 whole entry): as the sequence (P43116 whole entry) above
Protocol: A 384-well drug plate was prepared to contain 6 test compounds, PGE2 and cAMP in 16 serial dilutions in triplicate, using a Biomek station. HEK-EBNA cells expressing a target PG receptor subtype (EP2 or EP4) were suspended in a stimulation buffer (HBSS, 0.1% BSA, 0.5 mM IBMX and 5 mM HEPES, pH 7.4) in a density of 10^4 cells/5 μl. The reaction was initiated by mixing 5 μL drug dilutions with 5 μl of HEK-EBNA cells in a well, carried out for 30 min at room temperature, and followed by the addition of 5 μl anti-cAMP acceptor beads in the control buffer with Tween-20 (25 mM NaCl, 0.03% Tween-20, 5 mM HEPES, pH7.4). After 30 min in the dark at room temperature, the mixtures were incubated with 15 μl biotinylated-cAMP/strepavidin donor beads in Lysis/Detection buffer (0.1% BSA, 0.3% Tween-20 and 5 mM HEPES, pH7.4) for 45 min at the room temperature. Fluorescence changes were read using a Fusion-alpha HT microplate reader.

SMILES	Ca2+ Signal-EC50 (nM) EP1 (hEP1)	EC50 (hEP2/Gqs5) [nM]	EC50 (hIP; read-out: Ca2+ Signal-EC50 (nM) IP) [nM]	Ca2+ Signal-EC50 (nM) DP (hDP/Gqs5)	EC50 (EP2) [nM]	Ca2+ Signal-EC50 (nM) IP (hIP)	EC50 (hEP1) [nM]
CCCCCC(O)c1ccc([C@@H]2[C@@H](C/C=C\CCCC(=O)O)[C@H](Cl)C[C@@H]2O)cc1 (stereo partly drawn) [Entry 34, (Z)-7-{(1R,2S,3S,5R)-5-Chloro-3-hydroxy-2-[4-(1-hydroxy-hexyl)-phenyl]-cyclopentyl}-hept-5-enoic acid]	not active	16	3280	not active	5		
O=C(O)CCCCCC[C@@H]1[C@@H](c2ccc(C(O)Cc3ccccc3)cc2)[C@H](O)C[C@H]1Cl (stereo partly drawn) [Entry 22, 7-{(1 R,2S,3R,5R)-5-Chloro-3-hydroxy-2-[4-(1-hydroxy-2-phenyl-ethyl)-phenyl]-cyclopentyl}-heptanoic acid]	not active	51		not active	59	not active	
CCCCCC(O)c1ccc([C@@H]2[C@@H](Cc3cccc(CCC(=O)O)c3)[C@H](Cl)C[C@H]2O)cc1 (stereo partly drawn) [Entry 3, 3-(3-{(1R,2S,3R,5R)-5-Chloro-3-hydroxy-2-[4-(1-hydroxy-hexyl)-phenyl]-cyclopentylmethyl}-phenyl)-propionic acid]	not active	158		not active	56	not active	
O=C(O)CCCCCC[C@@H]1[C@@H](c2ccc(C(O)CCc3ccccc3)cc2)[C@H](O)C[C@H]1Cl (stereo partly drawn) [Entry 24, 7-{(1R,2S,3R,5R)-5-Chloro-3-hydroxy-2-[4-(1-hydroxy-3-phenyl-propyl)-phenyl]-cyclopentyl}-heptanoic acid]		735		not active	628	not active	4520
CC(C)(C)CCCC(O)c1ccc([C@@H]2[C@@H](CCCCCCC(=O)O)[C@H](Cl)C[C@H]2O)cc1 (mixture of isomers) [Entry 20, 7-{(1R,2S,3R,5R)-5-Chloro-3-hydroxy-2-[4-(1-hydroxy-5,5-dimethyl-hexyl)-phenyl]-cyclopentyl}-heptanoic acid]	not active	5390		not active	> 10000	not active	
CCCCCC(O)C(C)(C)c1ccc([C@@H]2[C@@H](C/C=C\CCCC(=O)O)[C@H](Cl)C[C@H]2O)cc1 (stereo partly drawn) [Entry 31, (Z)-7-{(1R,2S,3R,5R)-5-Chloro-3-hydroxy-2-[4-(2-hydroxy-1,1-dimethyl-heptyl)-phenyl]-cyclopentyl}-hept-5-enoic acid]	not active	544		not active	19	not active	
O=C(O)CCC/C=C\C[C@@H]1[C@@H](c2ccc(C(O)Cc3ccccc3)cc2)[C@H](O)C[C@H]1Cl (mixture of isomers) [Entry 21, (Z)-7-{(1R,2S,3R,5R)-5-Chloro-3-hydroxy-2-[4-(1-hydroxy-2-phenyl-ethyl)-phenyl]-cyclopentyl}-hept-5-enoic acid]	not active	9		not active	14	not active	
CCCCCC(O)c1ccc([C@@H]2[C@@H](C/C=C\CCCC(=O)O)[C@H](Cl)C[C@H]2O)cc1 (mixture of isomers) [Entry 11, (Z)-7-{(1R,2S,3R,5R)-5-Chloro-3-hydroxy-2-[4-(1-hydroxy-hexyl)-phenyl]-cyclopentyl}-hept-5-enoic acid]	not active	7		not active	3	not active	
CCCC(O)c1ccc([C@@H]2[C@@H](C/C=C\CCCC(=O)O)[C@H](Cl)C[C@H]2O)cc1 (stereo partly drawn) [Entry 26, (Z)-7-{(1R,2S,3R,5R)-5-Chloro-3-hydroxy-2-[4-(1-hydroxy-butyl)-phenyl]-cyclopentyl}-hept-5-enoic acid]	not active	154		not active	7	not active	
CCCCCCc1ccc([C@@H]2[C@@H](C/C=C\CCCC(=O)O)[C@H](Cl)C[C@H]2O)cc1 [Entry 33, (Z)-7-[(1R,2S,3R,5R)-5-Chloro-2-(4-hexyl-phenyl)-3-hydroxy-cyclopentyl]-hept-5-enoic acid]	not active	26		not active	27	not active	
CCCCCC(O)c1ccc([C@@H]2[C@@H](CCCc3ccc(C(=O)O)s3)[C@H](Cl)C[C@H]2O)cc1 (stereo partly drawn) [Entry 2, 5-(3-{(1R,2S,3R,5R)-5-Chloro-3-hydroxy-2-[4-(1-hydroxy-hexyl)-phenyl]-cyclopentyl}-propyl)-thiophene-2-carboxylic acid]		4		not active	2	not active	664
CCCCCC(O)c1ccc([C@@H]2[C@@H](CCCc3ncc(C(=O)O)s3)[C@H](Cl)C[C@H]2O)cc1 (stereo partly drawn) [Entry 5, 2-(3-{(1R,2S,3R,5R)-5-Chloro-3-hydroxy-2-[4-(1-hydroxy-hexyl)-phenyl]-cyclopentyl}-propyl)-thiazole-5-carboxylic acid]	not active	619		not active	1060	not active	
CCCCCC(O)c1ccc([C@@H]2[C@@H](C/C=C\CCCC(=O)O)[C@H](Cl)C[C@H]2O)cc1 (single isomer, unassigned) [Entry 13]	not active	11		not active	3	not active	
